In this experiment the target is Sphingosine 1-phosphate receptor 1 (Homo sapiens) (UniProt P21453). Kind of experiment: S1P1 receptor antagonism, potency – cell-based, luminescence, late-stage, counter-screen for S1PR3 antagonist project, dose response (AID 743422). To be noted: Tango EDG-1-bla U2OS cells, beta-lactamase FRET reporter, 5 h S1P. (In general: The purpose of a counterscreen is to sort out artefacts and off-target activity.)

The source made the active and inactive calls. No rule for the calls is given here.

Sequence of Sphingosine 1-phosphate receptor 1 (Homo sapiens) (P21453 whole entry, looked up): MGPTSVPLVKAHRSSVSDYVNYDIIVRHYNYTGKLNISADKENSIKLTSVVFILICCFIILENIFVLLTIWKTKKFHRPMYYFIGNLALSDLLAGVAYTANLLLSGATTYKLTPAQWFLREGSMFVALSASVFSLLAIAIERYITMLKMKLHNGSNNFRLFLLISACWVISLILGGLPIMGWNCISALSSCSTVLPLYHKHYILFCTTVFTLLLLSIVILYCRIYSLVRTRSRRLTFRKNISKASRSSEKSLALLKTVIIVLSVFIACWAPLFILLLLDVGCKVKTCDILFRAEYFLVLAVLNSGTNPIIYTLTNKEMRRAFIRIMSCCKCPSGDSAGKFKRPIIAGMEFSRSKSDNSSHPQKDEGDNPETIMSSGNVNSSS

As usually defined, the IC50 is the point on the concentration scale where inhibition reaches its midpoint. As to `O=C(NC(Cc1ccccc1)c1nc(-c2ccccc2)no1)c1cccc(Cl)c1` (centres undefined), the IC50 is > 28.2 µM (inactive).
The figure for `COc1ccc(C(=O)NC(c2ccccc2)c2nc(-c3ccccc3)no2)cc1` (centres undefined) is > 28.2 µM (inactive); for `O=C(NC(c1cccc(Cl)c1)c1nc(-c2ccccc2)no1)c1cc(Cl)cc(Cl)c1` (centres undefined) it is 0.112 µM.
The figure for `O=C(NC(c1ccccc1)c1nc(-c2ccccc2)no1)c1cccc(Cl)c1` (centres undefined) is 1.6 µM; for `O=C(NC(c1ccc(Cl)cc1)c1nc(-c2cccc(Cl)c2)no1)c1cccc(Cl)c1` (centres undefined) it is > 28.2 µM (inactive); for `O=C(NC(c1ccc(Br)cc1)c1nc(-c2ccccc2)no1)c1ccc(Cl)c(Cl)c1` (centres undefined) it is > 28.2 µM (inactive).
For `Cc1ccc(C(=O)NC(c2ccccc2)c2nc(-c3ccccc3)no2)cc1` (centres undefined), the IC50 is > 28.2 µM (inactive).
`CCc1ccc(C(NC(=O)c2cccc(Cl)c2)c2nc(-c3ccccc3)no2)cc1` (centres undefined): the IC50 was > 28.2 µM (inactive).
With `O=C(c1cccc(Cl)c1)N(CCO)C(c1ccc(Cl)c(Cl)c1)c1nc(-c2ccccc2)no1` (centres undefined), the IC50 is 2.7 µM.
For `O=C(NC(c1ccc(Cl)cc1)c1nc(-c2ccccc2)no1)c1ccc(Cl)c(Cl)c1` (centres undefined) the value was “inactive”; for `O=C(NC(c1ccccc1)c1nc(-c2ccccc2)no1)c1ccc(Cl)cc1` (centres undefined), 7.3 µM.
Regarding `O=C(NC(c1ccc(Cl)cc1)c1nc(-c2ccccc2)no1)c1cccc(Cl)c1` (centres undefined), the IC50 was > 28.2 µM (inactive).
The figure for `O=C(NC(c1ccc(Cl)c(Cl)c1)c1nc(-c2ccccc2)no1)c1ccc(Cl)cc1` (centres undefined) is 1.2 µM; for `O=C(NC(c1ccc(Cl)cc1)c1nc(-c2ccccn2)no1)c1cccc(Cl)c1` (centres undefined) it is > 28.2 µM (inactive).

The values above are taken from PubChem BioAssay AID743422 (The Scripps Research Institute Molecular Screening Center, 2014).
